Experimental data published in JP2009062322A, “肝実質細胞再生促進剤” (Minophagen Pharmaceutical Co Ltd, priority 2007, dated 2009).

Test system: primary cultured hepatic parenchymal cells (初代培養肝実質細胞)
Assay: Proliferation of primary cultured rat hepatic parenchymal cells: DNA synthesis (3H-thymidine incorporation) and number of nuclei
Details: for EC50: Rattus norvegicus; for proliferation-promoting effect: compound alone, low-density culture, 4 h, result in words

SMILES | EC50 [nM] | proliferation-promoting effect | proliferation-promoting effect relative to glycyrrhetinic acid (by EC50) (fold stronger than glycyrrhetinic acid (グリチルレチン酸), by EC50 value)
CC1(C)[C@@H](O)CC[C@]2(C)[C@H]3C(=O)C=C4[C@@H]5C[C@@](C)(C(=O)O)CC[C@]5(C)CC[C@@]4(C)[C@]3(C)CC[C@@H]12 [グリチルレチン酸, reference compound] | 5 | 用量依存的に促進効果を示した | –
CC1(C)[C@@H](O)CC[C@]2(C)[C@H]3CC=C4[C@@H]5C[C@@](C)(C(=O)O)CC[C@]5(C)CC[C@@]4(C)[C@]3(C)CC[C@@H]12 [化合物(11), 11−デオキソグリチルレチン酸] | 0.04 | 用量依存的に促進効果を示した | ~100 倍 (fold)
C[C@]1(C(=O)O)CC[C@]2(C)CC[C@]3(C)C(=CC[C@@H]4[C@@]5(C)CC[C@H](O)[C@](C)(CO)[C@@H]5CC[C@]43C)[C@@H]2C1 [化合物(12)] | 4 | 用量依存的に促進効果を示した | –
